Measured values published in ChEMBL document CHEMBL1201862, “PubChem BioAssay data set” (2004).
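Five compound concentrations were applied to cells in 96-well plates for 48 hours; endpoints were derived by simple linear interpolation of the resulting dose-response curve. Here, GI50 denotes the concentration required for 50% inhibition of growth.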 Active and inactive are the calls of the source. No stated cut-off is given here; in the data, active = GI50 up to about 1.1 µM and inactive = higher.

Legend:
Test in all cases: inhibition of tumour cell growth, NCI panel, 48 h
[1] = test system: Malme-3M
[2] = test system: UO-31
[3] = test system: COLO 205
[4] = test system: HOP-62
[5] = test system: SF-268
[6] = test system: MCF7
[7] = test system: MDA-MB-435
[8] = test system: NCI-H460
[9] = test system: SNB-75
[10] = test system: NCI-H23
[11] = test system: U-251
[12] = test system: T47D
[13] = test system: DU-145
[14] = test system: SW-620
[15] = test system: SK-MEL-2
[16] = test system: OVCAR-8
[17] = test system: ACHN
[18] = test system: CAKI-1
[19] = test system: SF-539

Structure (SMILES)	GI50 [1]	GI50 [2]	GI50 [3]	GI50 [4]	GI50 [5]	GI50 [6]	GI50 [7]	GI50 [8]	GI50 [9]	GI50 [10]	GI50 [11]	GI50 [12]	GI50 [13]	GI50 [14]	GI50 [15]	GI50 [16]	GI50 [17]	GI50 [18]	GI50 [19]
O=S(=O)(Nc1nccs1)c1ccc([As](=O)(O)O)cc1	> 100 µM (inactive)	> 100 µM (inactive)	> 100 µM (inactive)	> 100 µM (inactive)	> 100 µM (inactive)	> 100 µM (inactive)	> 100 µM (inactive)	> 100 µM (inactive)	> 100 µM (inactive)	> 100 µM (inactive)	> 100 µM (inactive)	> 100 µM (inactive)	> 100 µM (inactive)	> 100 µM (inactive)	> 100 µM (inactive)	> 100 µM (inactive)	> 100 µM (inactive)	> 100 µM (inactive)	–
CN(C(=O)c1ccc2c(c1)sc1c(=O)n(C)c3ccccc3c12)c1ccccc1	> 100 µM (inactive)	37.7 µM (inactive)	> 100 µM (inactive)	–	–	> 100 µM (inactive)	> 100 µM (inactive)	> 100 µM (inactive)	> 100 µM (inactive)	> 100 µM (inactive)	50 µM (inactive)	> 100 µM (inactive)	> 100 µM (inactive)	> 100 µM (inactive)	> 100 µM (inactive)	> 100 µM (inactive)	33.7 µM (inactive)	> 100 µM (inactive)	> 100 µM (inactive)
COCCN(CCOC)C(=O)COc1c2cc(C(C)(C)C)cc1Cc1cc(C(C)(C)C)cc(c1OCC(=O)N(CCOC)CCOC)Cc1cc(C(C)(C)C)cc(c1OCC(=O)N(CCOC)CCOC)Cc1cc(C(C)(C)C)cc(c1OCC(=O)N(CCOC)CCOC)Cc1cc(C(C)(C)C)cc(c1OCC(=O)N(CCOC)CCOC)C2	1.85 µM (inactive)	0.366 µM (active)	0.562 µM (active)	1.73 µM (inactive)	1.93 µM (inactive)	1.3 µM (inactive)	2.09 µM (inactive)	1.12 µM (inactive)	0.0881 µM (active)	1.19 µM (inactive)	0.53 µM (active)	1.27 µM (inactive)	2.81 µM (inactive)	0.877 µM (active)	1.02 µM (active)	1.39 µM (inactive)	0.817 µM (active)	–	2.34 µM (inactive)
OC1(c2ccc(Cl)cc2)C(N2CCCC2)c2ccccc2C2=NCCN21 (stereo not given)	18.5 µM (inactive)	33 µM (inactive)	11.5 µM (inactive)	31.8 µM (inactive)	47.5 µM (inactive)	28.5 µM (inactive)	25.6 µM (inactive)	24.2 µM (inactive)	–	24.3 µM (inactive)	37.4 µM (inactive)	17.7 µM (inactive)	32.4 µM (inactive)	20.3 µM (inactive)	21.9 µM (inactive)	23.9 µM (inactive)	30.3 µM (inactive)	26.5 µM (inactive)	18.5 µM (inactive)
CN(C)CCCNC1=C(Cl)C(=O)c2c(O)ccc(O)c2C1=O	1.84 µM (inactive)	6.04 µM (inactive)	1.49 µM (inactive)	2.61 µM (inactive)	1 µM (active)	1.55 µM (inactive)	1.6 µM (inactive)	2.13 µM (inactive)	9.04 µM (inactive)	1.65 µM (inactive)	1.74 µM (inactive)	2.09 µM (inactive)	1.82 µM (inactive)	1.82 µM (inactive)	–	3.27 µM (inactive)	6.1 µM (inactive)	> 10 µM (inactive)	1.69 µM (inactive)
CC[C@H](C)C1=C(O)[N@+]2([O-])Oc3ccc(-c4c(O)c(O)c(-c5ccc(O)cc5)c(OC(C)=O)c4OC(C)=O)cc3O[C@]2([C@@H](C)CC)C(=O)N1O	21.3 µM (inactive)	33.8 µM (inactive)	> 50 µM (inactive)	30.1 µM (inactive)	27.5 µM (inactive)	18.7 µM (inactive)	28.1 µM (inactive)	19 µM (inactive)	–	47.3 µM (inactive)	26.7 µM (inactive)	> 50 µM (inactive)	33.3 µM (inactive)	15.7 µM (inactive)	> 50 µM (inactive)	27 µM (inactive)	22.5 µM (inactive)	28.8 µM (inactive)	18 µM (inactive)
COc1ccc2c(c1)CC1C3(CCCCC23)CC[N+]1(C)C (stereo not given)	> 100 µM (inactive)	> 100 µM (inactive)	> 100 µM (inactive)	> 100 µM (inactive)	90.8 µM (inactive)	> 100 µM (inactive)	84.9 µM (inactive)	> 100 µM (inactive)	34.4 µM (inactive)	> 100 µM (inactive)	66.7 µM (inactive)	> 100 µM (inactive)	> 100 µM (inactive)	–	> 100 µM (inactive)	> 100 µM (inactive)	> 100 µM (inactive)	> 100 µM (inactive)	–
C/C(=N/NC(=O)c1ccccc1Nc1ccccc1C(=O)N/N=C(\C)c1ccc(C)cc1)c1ccc(C)cc1	32.5 µM (inactive)	> 100 µM (inactive)	83.6 µM (inactive)	11.4 µM (inactive)	> 100 µM (inactive)	14.6 µM (inactive)	> 100 µM (inactive)	15.5 µM (inactive)	> 100 µM (inactive)	> 100 µM (inactive)	> 100 µM (inactive)	> 100 µM (inactive)	> 100 µM (inactive)	> 100 µM (inactive)	> 100 µM (inactive)	> 100 µM (inactive)	23.9 µM (inactive)	> 100 µM (inactive)	–
COc1ccc2cc(C(C)C(O)c3cc(F)c(F)c(F)c3F)ccc2c1 (stereo not given)	> 100 µM (inactive)	86.5 µM (inactive)	> 100 µM (inactive)	26.2 µM (inactive)	76.4 µM (inactive)	> 100 µM (inactive)	> 100 µM (inactive)	> 100 µM (inactive)	16.3 µM (inactive)	49.8 µM (inactive)	> 100 µM (inactive)	53.5 µM (inactive)	> 100 µM (inactive)	> 100 µM (inactive)	–	65.3 µM (inactive)	42.9 µM (inactive)	–	–
N=C(N)C1CN(CCc2c[nH]c3ccccc23)C(=O)NC1=O (stereo not given)	> 100 µM (inactive)	> 100 µM (inactive)	> 100 µM (inactive)	> 100 µM (inactive)	> 100 µM (inactive)	> 100 µM (inactive)	> 100 µM (inactive)	> 100 µM (inactive)	> 100 µM (inactive)	> 100 µM (inactive)	> 100 µM (inactive)	> 100 µM (inactive)	> 100 µM (inactive)	> 100 µM (inactive)	–	> 100 µM (inactive)	> 100 µM (inactive)	–	–
O=[N+]([O-])c1cc(C2(N3CCCCC3)CCCCC2)sc1Br	3.44 µM (inactive)	12.1 µM (inactive)	3.82 µM (inactive)	6 µM (inactive)	7.5 µM (inactive)	2.83 µM (inactive)	4.78 µM (inactive)	14.4 µM (inactive)	–	11.9 µM (inactive)	6.01 µM (inactive)	1.87 µM (inactive)	3.18 µM (inactive)	4.09 µM (inactive)	7.06 µM (inactive)	6.31 µM (inactive)	3.98 µM (inactive)	6 µM (inactive)	2.52 µM (inactive)
Cc1c(C)c2c(c(N)c1C#N)C(=O)N(OS(=O)(=O)c1ccccc1)C2=O	16.1 µM (inactive)	33.7 µM (inactive)	21.8 µM (inactive)	–	95.1 µM (inactive)	38 µM (inactive)	19 µM (inactive)	37.5 µM (inactive)	32.5 µM (inactive)	–	20.5 µM (inactive)	2.55 µM (inactive)	11.6 µM (inactive)	20.8 µM (inactive)	49 µM (inactive)	17.8 µM (inactive)	18.5 µM (inactive)	20.8 µM (inactive)	16.6 µM (inactive)
CN1CCN(Cc2nc3c(s2)CCc2sccc2-3)CC1	89.3 µM (inactive)	59.8 µM (inactive)	> 100 µM (inactive)	> 100 µM (inactive)	82.6 µM (inactive)	79.8 µM (inactive)	54.2 µM (inactive)	> 100 µM (inactive)	75.7 µM (inactive)	> 100 µM (inactive)	> 100 µM (inactive)	41.6 µM (inactive)	> 100 µM (inactive)	> 100 µM (inactive)	> 100 µM (inactive)	94.6 µM (inactive)	> 100 µM (inactive)	37.7 µM (inactive)	–
CCCC(=O)NC(NC1CCCCC1)(C(=O)OCC)C(F)(F)F (stereo not given)	> 100 µM (inactive)	> 100 µM (inactive)	–	> 100 µM (inactive)	> 100 µM (inactive)	> 100 µM (inactive)	> 100 µM (inactive)	> 100 µM (inactive)	29.7 µM (inactive)	> 100 µM (inactive)	> 100 µM (inactive)	> 100 µM (inactive)	> 100 µM (inactive)	> 100 µM (inactive)	> 100 µM (inactive)	> 100 µM (inactive)	> 100 µM (inactive)	–	> 100 µM (inactive)
C=C=C(C)C(=O)N(C(C)C)C(C)C	> 100 µM (inactive)	> 100 µM (inactive)	> 100 µM (inactive)	> 100 µM (inactive)	> 100 µM (inactive)	> 100 µM (inactive)	> 100 µM (inactive)	> 100 µM (inactive)	> 100 µM (inactive)	> 100 µM (inactive)	> 100 µM (inactive)	> 100 µM (inactive)	> 100 µM (inactive)	> 100 µM (inactive)	–	> 100 µM (inactive)	> 100 µM (inactive)	–	–
